Experimental data: US20110224250A1, “ISOQUINOLINE DERIVATIVE, AND PDE INHIBITOR COMPRISING SAME AS ACTIVE INGREDIENT” (priority 2008, published 2011)

How the values were obtained:
PDE3A catalytic zone = molecular target: T1, PDE3A catalytic zone (Homo sapiens, UniProt Q14432); test: Phosphodiesterase-inhibitory activity, PDE3; assay type: biochemical; settings: human-derived recombinant PDE protein, [3H]-cAMP, 30° C. for 20 minutes; read-out: IC50 (μmol/L) PDE3
T1 construct: Regarding the cDNAs of the PDE3A catalytic zone; made in house; host or cells: Sf9 insect cells (baculovirus, Bac-to-Bac / Gateway)

PDE4Bcat = molecular target: T2, PDE4Bcat (Homo sapiens, UniProt Q07343); test: Phosphodiesterase-inhibitory activity, PDE4; assay type: biochemical; settings: human-derived recombinant PDE protein, [3H]-cAMP, 30° C. for 20 minutes; read-out: IC50 (μmol/L) PDE4
T2 construct: made in house; host or cells: Sf9 insect cells (baculovirus, Bac-to-Bac / Gateway)
T2 sequence (Q07343 330-659 limits assumed): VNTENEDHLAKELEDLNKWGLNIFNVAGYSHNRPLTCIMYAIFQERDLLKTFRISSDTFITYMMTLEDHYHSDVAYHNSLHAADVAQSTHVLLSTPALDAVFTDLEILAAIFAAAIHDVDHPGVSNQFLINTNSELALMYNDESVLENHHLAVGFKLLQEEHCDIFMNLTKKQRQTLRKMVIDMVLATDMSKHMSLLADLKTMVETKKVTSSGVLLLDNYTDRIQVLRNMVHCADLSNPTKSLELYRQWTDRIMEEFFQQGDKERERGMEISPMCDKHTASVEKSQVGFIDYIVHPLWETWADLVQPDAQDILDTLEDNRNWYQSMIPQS

T1 sequence (Q14432 674-1093 limits assumed): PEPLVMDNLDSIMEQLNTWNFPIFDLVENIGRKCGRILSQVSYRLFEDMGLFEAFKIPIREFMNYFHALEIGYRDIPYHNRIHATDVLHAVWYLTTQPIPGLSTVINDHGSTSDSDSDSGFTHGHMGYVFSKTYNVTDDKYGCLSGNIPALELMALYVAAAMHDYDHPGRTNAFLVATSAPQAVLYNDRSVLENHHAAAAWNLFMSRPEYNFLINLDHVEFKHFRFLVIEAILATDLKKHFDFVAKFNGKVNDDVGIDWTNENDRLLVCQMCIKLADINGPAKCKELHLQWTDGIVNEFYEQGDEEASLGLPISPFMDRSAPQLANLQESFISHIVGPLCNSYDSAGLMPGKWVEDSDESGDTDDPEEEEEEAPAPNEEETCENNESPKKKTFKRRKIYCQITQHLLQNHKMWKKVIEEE

| IC50 (PDE3A catalytic zone) | IC50 (PDE4Bcat) | SMILES |
| --- | --- | --- |
| ≥ 100 µmol/L | < 0.01 µmol/L | COc1ccc(-c2ccc3cncc(Cl)c3c2)c2c(Cl)c(C(F)(F)F)nn12 [Example 52, 4-Chloro-6-(3-chloro-7-methoxy-2-trifluoromethylpyrazolo[1,5-a]pyridin-4-yl)isoquinoline] |
| 1 to 100 µmol/L | < 0.01 µmol/L | COc1ccc(-c2ccc3cnccc3c2Cl)c2cc(C(F)(F)F)nn12 [Example 50, 5-Chloro-6-(7-methoxy-2-trifluoromethylpyrazolo[1,5-a]pyridin-4-yl)isoquinoline] |
| ≥ 100 µmol/L | < 0.01 µmol/L | CNc1ccc(-c2ccc3cnccc3c2)c2cc(C(F)(F)F)nn12 [Example 55, 4-(Isoquinolin-6-yl)-N-methyl-2-trifluoromethylpyrazolo[1,5-a]pyridine-7-amine] |
| ≥ 100 µmol/L | < 0.01 µmol/L | COc1ccc(-c2ccc3cnccc3c2)n2c(Cl)c(C(F)(F)F)nc12 [Example 57, 6-(3-Chloro-8-methoxy-2-trifluoromethylimidazo[1,2-a]pyridin-5-yl)isoquinoline] |
| ≥ 100 µmol/L | < 0.01 µmol/L | CNc1ccc(-c2ccc3cnccc3c2)c2c(Cl)c(C(F)(F)F)nn12 [Example 56, 3-Chloro-4-(isoquinolin-6-yl)-N-methyl-2-trifluoromethylpyrazolo[1,5-a]pyridine-7-amine] |
| 1 to 100 µmol/L | < 0.01 µmol/L | CCc1cc2c(-c3ccc4cnccc4c3)ccc(OC)n2n1 [Example 54, 6-(2-Ethyl-7-methoxypyrazolo[1,5-a]pyridin-4-yl)isoquinoline] |
| ≥ 100 µmol/L | < 0.01 µmol/L | COc1ccc(-c2ccc3cnccc3c2)c2cc(C(F)(F)F)nn12 [Example 47, 6-(7-Methoxy-2-trifluoromethylpyrazolo[1,5-a]pyridin-4-yl)isoquinoline] |
| 1 to 100 µmol/L | < 0.01 µmol/L | COc1ccc(-c2ccc3cnccc3c2)c2cc(C3CC3)nn12 [Example 53, 6-(2-Cyclopropyl-7-methoxypyrazolo[1,5-a]pyridin-4-yl)isoquinoline] |
| 1 to 100 µmol/L | < 0.01 µmol/L | COc1ccc(-c2ccc3cncc(Cl)c3c2)c2cc(C(F)(F)F)nn12 [Example 49, 4-Chloro-6-(7-methoxy-2-trifluoromethylpyrazolo[1,5-a]pyridin-4-yl)isoquinoline] |
| ≥ 100 µmol/L | < 0.01 µmol/L | CNc1ccc(-c2ccc3cnccc3c2)n2c(Cl)c(C(F)(F)F)nc12 [Example 58, 3-Chloro-5-(isoquinolin-6-yl)-N-methyl-2-trifluoromethylimidazo[1,2a]pyridine-8-amine] |
| 1 to 100 µmol/L | < 0.01 µmol/L | COc1ccc(-c2ccc3c[n+]([O-])ccc3c2)c2cc(C(F)(F)F)nn12 [Example 48, 6-(7-Methoxy-2-trifluoromethylpyrazolo[1,5-a]pyridin-4-yl)isoquinoline 2-oxide] |
| ≥ 100 µmol/L | < 0.01 µmol/L | COc1ccc(-c2ccc3cnccc3c2)c2c(Cl)c(C(F)(F)F)nn12 [Example 51, 6-(3-Chloro-7-methoxy-2-trifluoromethylpyrazolo[1,5-a]pyridin-4-yl)isoquinoline] |
| 1 to 100 µmol/L | < 0.01 µmol/L | COc1ccc(-c2ccc3cnccc3c2)c2cccnc12 [Example 59, 5-(Isoquinolin-6-yl)-8-methoxyquinoline] |
